Experiments:
[1] = system: Colon cancer (C26, murine) cells; experiment: Tumor cell proliferation assay (ATP-lite), C26; format: cell-based; conditions: Mus musculus, 96 h, inhibition of tumor cell growth by 50%, 4 days incubation, ATP-lite readout
Description: (§1) Assay 1: Tumor Cell Proliferation Assay:
(§2) Colon cancer (C26, murine), pancreatic cancer (MiaPaCa-2, human) cells were plated in 96-well white plates (Cat. No. 3917, Corning, Inc.) at 2.5×10^3 cells/well and cultured overnight at 37° C. in 5% CO2 in DMEM containing 10% FCS. Inhibitors were serially diluted in 100% DMSO and subsequently added to cells to reach a final concentration of 0.25% DMSO. Cell plates were incubated for an additional 4 days at 37° C. and 5% CO2 and cell proliferation was quantitated using the ATP-lite cell proliferation kit (Cat. No. 6016943, Perkin Elmer).
(§3) The ATPlite kit quantifies the ATP released from lysed cells by the generation of light caused by the reaction of the released ATP with the Luciferase and D-Luciferin contained in the kit. After the 4th day of incubation, the media is removed from the cell plates and replaced with 100 μL of PBS followed by 50 μL of the lysis solution. The plates are then shaken for 5 minutes on an orbital shaker followed by the addition of 50 μL of substrate solution. The plates are shaken for an additional 5 minutes followed by dark adaptation for 10 minutes and finally read on a Victor^3 V plate reader (1 second/well, Cat. No. 1420-041, Perkin Elmer).
(§4) Columns 2-3 show the concentration of compounds required to inhibit the growth of tumor cells by 50% (IC50 in μM).

[2] = system: pancreatic cancer (MiaPaCa-2, human) cells; experiment: Tumor cell proliferation assay (ATP-lite), MiaPaCa-2; format: cell-based; conditions: MIA PaCa-2, 96 h; inhibition of tumor cell growth by 50%; MiaPaCa-2 human pancreatic cancer cells; 4 days incubation; ATP-lite readout
Description: as §1, §2, §3, §4

Question: How did the IC50 [1] turn out when `CC(=NNc1cc(-c2ccccc2C)nc(C)n1)c1ccc(C)cc1` [Compound 32, N-[6-(2-methyl-phenyl)-2-methyl-pyrimidin-4-yl]-N′-[1-p-tolyl-ethylidene]-hydrazine] was run?
Answer: < 1000 nM

Question: What about the IC50 [2] of the same compound?
Answer: < 1000 nM

Question: How did the IC50 [1] turn out when `CC(=NNc1cc(-c2cccnc2)nc(C)n1)c1ccc(C)cc1` [Compound 37, N-(2-Methyl-6-pyridin-3-yl-pyrimidin-4-yl)-N′-[1-p-tolyl-ethylidene]-hydrazine] was run?
Answer: 1000 to 15000 nM

Question: Which IC50 [1] does the source give for `CC(=NNc1cc(-c2c(C)noc2C)nc(C)n1)c1ccc(C)cc1` [Compound 36, N-[6-(3,5-Dimethyl-isoxazol-4-yl)-2-methyl-pyrimidin-4-yl]-N′-[1-p-tolyl-ethylidene]-hydrazine] here?
Answer: < 1000 nM

Question: What about the IC50 [2] of the same compound?
Answer: < 1000 nM

Question: For `COc1cccc(OC)c1-c1cc(NN=C(C)c2ccc(C)cc2)nc(C)n1` [Compound 40, N-[6-(2,6-Dimethoxy-phenyl)-2-methyl-pyrimidin-4-yl]-N′-[1-p-tolyl-ethylidene]-hydrazine], which IC50 [1] is on record?
Answer: < 1000 nM

Question: And the IC50 [2]?
Answer: < 1000 nM

Question: For `COc1ccccc1-c1cc(NN=C(C)c2ccc(N(C)C)cc2)ncn1` [Compound 17, [4-(1-{[6-(2-Methoxy-phenyl)-pyrimidin-4-yl]-hydrazono}-ethyl)-phenyl]dimethyl amine], which IC50 [1] is on record?
Answer: < 1000 nM

Question: What about the IC50 [2] of the same compound?
Answer: < 1000 nM

Question: Which results are given for `CC(=NNc1cc(-c2ccccc2C#N)nc(C)n1)c1ccc(C)cc1` [Compound 31, 2-(2-Methyl-6-{N′-[1-p-tolyl-ethylidene]-hydrazino}-pyrimidin-4-yl)-benzonitrile]?
Answer: IC50 [1]: < 1000 nM; IC50 [2]: < 1000 nM

Question: For `CCc1nc(NN=C(C)c2ccc(N(C)C)cc2)cc(-c2ccccc2OC)n1` [Compound 16, [4-(1{[2-Ethyl-6-(2-methoxy-phenyl)-pyrimidin-4-yl]-hydrazono}-ethyl)-phenyl]-dimethylamine], which IC50 [1] is on record?
Answer: < 1000 nM

Question: And the IC50 [2]?
Answer: < 1000 nM

Question: With `CC(=NNc1cc(-c2ccccc2)nc(C)n1)c1ccc(Cl)c(Cl)c1` [Compound 47, N-[1-(3,4-Dichloro-phenyl)-ethylidene]-N′-(2-methyl-6-phenyl-pyrimidin-4-yl)-hydrazine] as the compound, how does the IC50 [1] read?
Answer: 1000 to 15000 nM

Question: Which IC50 [1] does the source give for `CC(=NNc1cc(-c2ccccc2N)nc(C)n1)c1ccc(N(C)C)cc1` [Compound 14, [4-(1-{[6-(2-amino-phenyl)-2-methyl-pyrimidin-4-yl]-hydrazono}-ethyl)-phenyl]-dimethylamine] here?
Answer: < 1000 nM

Question: And the IC50 [2]?
Answer: < 1000 nM

Question: What does the source list for `CC(=NNc1cc(-c2ccccc2F)nc(C)n1)c1ccc(N(C)C)cc1` [Compound 13, [4-(1-{[6-(2-Fluoro-phenyl)-2-methyl-pyrimidin-4-yl]-hydrazono}-ethyl)-phenyl]-dimethylamine]?
Answer: IC50 [1]: < 1000 nM; IC50 [2]: < 1000 nM

Question: What does the source list for `CNc1ccc(C(C)=NNc2cc(-c3ccccc3)nc(C)n2)cc1` [Compound 18, Methyl-(4-{1-[(2-methyl-6-phenyl-pyrimidin-4-yl)-hydrazono]-ethyl}-phenyl)-amine]?
Answer: IC50 [1]: < 1000 nM; IC50 [2]: < 1000 nM

Question: With `COc1ccc(C(C)=NNc2cc(-c3ccccc3)nc(C)n2)cc1` [Compound 24, N-[1-(4-Methoxy-phenyl)-ethylidene]-N′-(2-methyl-6-phenyl-pyrimidin-4-yl)-hydrazine] as the compound, how does the IC50 [1] read?
Answer: < 1000 nM

Question: Which IC50 [1] does the source give for `COc1ccccc1-c1cc(NN=C(C)c2ccc(N(C)C)cc2)nc(C)n1` [Compound 9] here?
Answer: < 1000 nM

Question: What about the IC50 [2] of the same compound?
Answer: < 1000 nM

Question: Which results are given for `CC(=NNc1cc(-c2ccccc2)nc(C)n1)c1ccc(N(C)C)cc1` [Compound 8, Dimethyl-(4-{1-[(2-methyl-6-phenyl-pyrimidin-4-yl)-hydrazono]ethyl}-phenyl)amine]?
Answer: IC50 [1]: < 1000 nM; IC50 [2]: < 1000 nM

Question: How did the IC50 [1] turn out when `CC(=NNc1cc(-c2ccccc2CO)nc(C)n1)c1ccc(C)cc1` [Compound 35, [2-(2-Methyl-6-{N′-[1-p-tolyl-ethylidene]-hydrazino}-pyrimidin-4-yl)-phenyl]-methanol] was run?
Answer: < 1000 nM

Question: And the IC50 [2]?
Answer: < 1000 nM

Question: Which IC50 [1] does the source give for `CCc1nc(NN=C(C)c2ccc(C)cc2)cc(-c2ccccc2OC)n1` [Compound 26, N-[2-Ethyl-6-(2-methoxy-phenyl)-pyrimidin-4-yl]-N′-[1-p-tolyl-ethylidene]-hydrazine] here?
Answer: < 1000 nM

Question: And the IC50 [2]?
Answer: < 1000 nM

Question: Which results are given for `CCC(=NNc1cc(-c2ccccc2)nc(C)n1)c1ccc(C)cc1` [Compound 22, N-(2-Methyl-6-phenyl-pyrimidin-4-yl)-N′-[1-p-tolyl-propylidene]-hydrazine]?
Answer: IC50 [1]: 1000 to 15000 nM; IC50 [2]: 1000 to 15000 nM

Question: With `CC(=NNc1cc(-c2ccccc2)nc(C)n1)c1ccc(N)cc1` [Compound 42, 4-{1-[(2-Methyl-6-phenyl-pyrimidin-4-yl)-hydrazono]-ethyl}-phenylamine] as the compound, how does the IC50 [1] read?
Answer: 1000 to 15000 nM

Question: And the IC50 [2]?
Answer: 1000 to 15000 nM

Question: With `CC(=O)Nc1ccc(C(C)=NNc2cc(-c3ccccc3)nc(C)n2)cc1` [Compound 20, N-(4-{1-[(2-Methyl-6-phenyl-pyrimidin-4-yl)-hydrazono]-ethyl}-phenyl)-acetamide] as the compound, how does the IC50 [1] read?
Answer: 1000 to 15000 nM

Question: And the IC50 [2]?
Answer: 1000 to 15000 nM

Question: `CC(=NNc1cc(-c2ccccc2)nc(C)n1)c1ccc(Cl)cc1` [Compound 23, N-[1-(4-Chloro-phenyl)ethylidene]-N′-(2-methyl-6-phenyl-pyrimidin-4-yl)-hydrazine] was tested. Which IC50 [1] did it give?
Answer: 1000 to 15000 nM

Question: For `CC(=NNc1cc(-c2ccccc2)nc(C)n1)c1ccc(C)cc1` [Compound 41, N-(2-Methyl-6-phenyl-pyrimidin-4-yl)-N′-(1-p-tolyl-ethylidene)-hydrazine], which IC50 [1] is on record?
Answer: < 1000 nM

Question: What about the IC50 [2] of the same compound?
Answer: < 1000 nM

Question: Which IC50 [2] does the source give for `COc1ccc(-c2cc(NN=C(C)c3ccc(C)cc3)nc(C)n2)cc1` [Compound 30, N-[6-(4-Methoxy-phenyl)-2-methylpyrimidin-4-yl]-N′-[1-p-tolyl-ethylidene]-hydrazine] here?
Answer: 1000 to 15000 nM

Question: What does the source list for `CNc1ccc(C(C)=NNc2nc(C)nc(-c3ccccc3)c2N)cc1` [Compound 21, 2-Methyl-4-{N′-[1-(4-methylamino-phenyl)-ethylidene]-hydrazino}-6-phenyl-pyrimidin-5-ylamine]?
Answer: IC50 [1]: < 1000 nM; IC50 [2]: < 1000 nM

Question: For `CC(=NNc1cc(-c2ccccc2OC(C)C)nc(C)n1)c1ccc(N(C)C)cc1` [Compound 12, [4-(1-{[6-(2-Isopropoxy-phenyl)-2-methyl-pyrimidin-4-yl]-hydrazono}-ethyl)-phenyl]-dimethylamine], which IC50 [1] is on record?
Answer: 1000 to 15000 nM

Question: What about the IC50 [2] of the same compound?
Answer: < 1000 nM

Question: Which results are given for `COc1nc(NN=C(C)c2ccc(N(C)C)cc2)cc(-c2ccccc2)n1` [Compound 15, (4-{1-[(2-Methoxy-6-phenyl-pyrimidin-4-yl)-hydrazono]-ethyl}-phenyl)-dimethylamine]?
Answer: IC50 [1]: < 1000 nM; IC50 [2]: < 1000 nM

Question: For `CC(=NN(C)c1nc(C(F)(F)F)nc2ccccc12)c1cccc(C)c1` [Compound 1], which IC50 [1] is on record?
Answer: < 1000 nM

Question: And the IC50 [2]?
Answer: < 1000 nM

Question: How did the IC50 [2] turn out when `COc1cccc(-c2cc(NN=C(C)c3ccc(C)cc3)nc(C)n2)c1` [Compound 28, N-[6-(3-Methoxy-phenyl)-2-methylpyrimidin-4-yl]-N′-[1-p-tolyl-ethylidene]-hydrazine] was run?
Answer: 1000 to 15000 nM

Question: How did the IC50 [1] turn out when `COc1ccccc1-c1cc(NN=C(C)c2ccc(C)cc2)nc(C)n1` [Compound 29, N-[6-(2-Methoxy-phenyl)-2-methylpyrimidin-4-yl]-N′-[1-p-tolyl-ethylidene]-hydrazine] was run?
Answer: < 1000 nM

Question: And the IC50 [2]?
Answer: < 1000 nM

Question: How did the IC50 [1] turn out when `CCc1ccc(C(C)=NNc2cc(-c3ccccc3)nc(C)n2)cc1` [Compound 43, N-[1-(4-Ethyl-phenyl)-ethylidene]-N′-(2-methyl-6-phenyl-pyrimidin-4-yl)-hydrazine] was run?
Answer: < 1000 nM

Question: Which results are given for `CC(=NNc1cc(-c2ccccc2OC(F)(F)F)nc(C)n1)c1ccc(N(C)C)cc1` [Compound 11, Dimethyl-[4-(1-{[2-methyl-6-(2-trifluoromethoxy-phenyl)-pyrimidin-4-yl]-hydrazono}-ethyl)-phenyl]-amine]?
Answer: IC50 [1]: < 1000 nM; IC50 [2]: < 1000 nM

Question: For `CC(=NNc1cc(-c2ccccc2)nc(C)n1)c1ccc(O)cc1` [Compound 48, 4-{1-[(2-Methyl-6-phenyl-pyrimidin-4-yl)-hydrazono]-ethyl}-phenol], which IC50 [1] is on record?
Answer: 1000 to 15000 nM

Question: With `CC(=NNc1nc(C)nc2ccccc12)c1cccc(C)c1` [Compound 6, N-(2-methyl-quinazolin-4-yl)-N′-(1-m-tolyl-ethylidene)-hydrazine] as the compound, how does the IC50 [1] read?
Answer: 1000 to 15000 nM

Question: And the IC50 [2]?
Answer: 1000 to 15000 nM

Question: Which results are given for `CC(=NNc1cc(-c2ccccc2)nc(C)n1)c1ccc(NC(N)=S)cc1` [Compound 19, 4-({1-[(2-Methyl-6-phenyl-pyrimidin-4-yl)-hydrazono]-ethyl}-phenyl)-thiourea]?
Answer: IC50 [1]: 1000 to 15000 nM; IC50 [2]: 1000 to 15000 nM

Question: `CC(=NNc1cc(-c2ccccc2)nc(C)n1)c1ccc(Br)cc1` [Compound 44, N-[1-(4-Bromo-phenyl)-ethylidene]-N′-(2-methyl-6-phenyl-pyrimidin-4-yl)-hydrazine] was tested. Which IC50 [1] did it give?
Answer: 1000 to 15000 nM

Question: For `CC(=NNc1nc(C(F)(F)F)nc2ccccc12)c1ccc(C)cc1` [Compound 3, N-(1-p-Tolyl-ethylidene)-N′-(2-trifluoromethyl-quinazolin-4-yl)-hydrazine], which IC50 [1] is on record?
Answer: 1000 to 15000 nM

Question: And the IC50 [2]?
Answer: 1000 to 15000 nM

Question: How did the IC50 [1] turn out when `CC(=NNc1cc(-c2ccccc2)nc(C)n1)c1ccc(I)cc1` [Compound 45, N-[1-(4-Iodo-phenyl)-ethylidene]-N′-(2-methyl-6-phenyl-pyrimidin-4-yl)-hydrazine] was run?
Answer: 1000 to 15000 nM

Question: How did the IC50 [1] turn out when `CC(=NNc1cc(-c2ccccc2)nc(C)n1)c1cccc(N)c1` [Compound 46, 3-{1-[(2-Methyl-6-phenyl-pyrimidin-4-yl)-hydrazono]-ethyl}-phenylamine] was run?
Answer: 1000 to 15000 nM
